Data published in patent publication US9250241B2, “Use of micropatterned soft substrate for measuring of cell traction forces” (COMMISSARIAT A L'ENERGIE ATOMIQUE ET AUX ENERGIES …, priority 2011, dated 2016).

Columns and labels:
[1] = tested on: MCF10A expressing inducible ErbB2 receptor; assay: Cell traction force measurement by crossbow micropattern bar length on micropatterned PAA, ErbB2 inducible cells; assay type: cell-based, human; conditions: 1 μM, 48 hr before traction force measurement; FIG. 5C
Description: When actin cables have an unpredictable spatial distribution, a given deformation cannot be directly assigned to a defined force magnitude. Indeed, forces applied on adjacent adhesion sites both affect local deformations, due to the continuous nature of the substrate. Each deformation results from local and distant forces. So the calculation of the force field is highly dependent on the spatial distribution of force application sites and the relationship between deformation and forces varies from one cell to the other. The inventors hypothesized that in cells developing a reproducible architecture and a controlled pattern of force application, a given local deformation could be assigned to a defined value of the contractile force. […] When the deformation was measured along the shortest, and therefore most contracted, cell axis, the correlation was improved (FIG. 4C). […] On the crossbow, a single image acquisition was sufficient to measure the bar length and read the corresponding average cell traction force using the calibration curve (FIG. 4F). […]
The culture of MCF10A cells and the generation of ΔCK2β cell line was described previously (Deshiere et al (2008) Mol Cell Biochem 316(1-2):107-113). […] Substrate relaxation was assessed by detaching cells with trypsin. […]

[2] = tested on: MCF10A cells; assay: Cell traction force measurement by crossbow micropattern bar length on micropatterned PAA; assay type: cell-based, human
Protocol: Non-tumorigenic human epithelial cells from the mammary gland, MCF10A, were plated on the micropatterned PAA substrates. Cells specifically attached to the fibronectin coated micropatterns since non-exposed PAA regions prevented protein adsorption (FIG. 2D). The effect of micropattern geometry on cell traction forces orientation was tested on various shapes: disc, pacman and crossbow (FIG. 3A). Spread cells exerted traction forces on the micropattern that could be measured by looking at the displacement of fluorescent beads embedded in the PAA gel (see FIG. 3B and Material and Methods). Particle Image Velocimetry followed by individual particle tracking were used to measure bead displacements (Marganski et al (2003) Methods Enzymol 361:197-211; Sabass et al (2008) Biophys J 94(1):207-220). Force fields were calculated from the bead displacement fields by using the Fourier transform traction cytometry (Sabass et al, supra; Butler et al (2002) Am J Physiol Cell Physiol 282(3):C595-605). Force fields exerted by individual cells were overlaid and averaged to quantify their reproducibility (FIG. 3C,D). On homogeneously coated regions cells developed forces that were randomly distributed from one cell to the other. In cells constrained on disc shaped micropatterns, forces were still randomly oriented but their magnitudes were lowered due to reduced cell spreading. In cells constrained on pacman shaped micropatterns, forces distribution was geometrically biased due to enhanced cell contraction above non adhesive regions. […] Importantly, most of the traction forces were reproducibly oriented upward, along the straight adhesive bar on the extremity of which the inventors measured the highest pressure (FIG. 3D). […]
When actin cables have an unpredictable spatial distribution, a given deformation cannot be directly assigned to a defined force magnitude. […] When the deformation was measured along the shortest, and therefore most contracted, cell axis, the correlation was improved (FIG. 4C). […]

## CCC(C)(C)C(=O)C(=O)N1CCCC[C@H]1C(=O)O[C@H](CCc1ccc(OC)c(OC)c1)c1cccc(OCC(=O)NCCNC(=O)COc2cccc([C@@H](CCc3ccc(OC)c(OC)c3)OC(=O)[C@@H]3CCCCN3C(=O)C(=O)C(C)(C)CC)c2)c1 [AP1510]
[1]
  level of cell contraction versus WT cells: no significant changes in the level of cell contraction

## Cc1ccc2c(c1)C(=O)C1(O)CCN(c3ccccc3)C1=N2 (stereo not shown) [Blebbistatin]
[2]; 50 μM, single cell, FIG. 5B
  force magnitude decrease over time: follows a single exponential decay
[2]; increasing drug concentrations successively applied to 6 cells, crossbow bar length, FIG. 5A
  force inhibition profile in response to increasing dose: matched the myosin II inhibition profile

## TGFb1: known to induce epithelial to mesenchymal transition (R&D systems)
[2]; 2 ng/mL for 2 days before plating, FIG. 5C
  level of cell contraction versus WT cells (crossbow shortening): significantly higher level of cell contraction
